# Measured values as given in patent publication US8192962B2, “Processes for detecting toxic substances” (Daikin Industries, Ltd., priority 2001, dated 2012).
# Tested on: Genes belonging to other category
# Experiment: DNA chip mRNA expression in yeast, genes belonging to other category (Table 9)
# Format: cell-based, Saccharomyces cerevisiae S288C
# Description: Yeast (Saccharomyces cerevisiae S288C (α SUC2mal mel gap2 CUP1)) were incubated at 25° C. on YPD medium (yeast extract 1%, polypepton 2%, glucose 2%). One of toxic chemical substances was added to the cells at logarithmic growth phase, and the cells were further incubated for two hours. Cells were cultured without any chemical substance in the same condition, and were used as control. Concentrations of the chemical substances were defined to inhibit the growth of the yeast but not lead to death.
# After completion of the incubation, the culture was centrifuged to collect the cells. To the cells, sodium acetate buffer (50 mM sodium acetate, 10 mM EDTA, 1% SDS) was added, and the mixture was shaken at 65° C. for five minutes, followed by returning to room temperature, and obtaining the supernatant, of which the procedures were repeated two times. To the supernatant, ½ amount of a solution of phenol/chloroform was added, and the mixture was centrifuged to give a supernatant, which was added with an equal amount of chloroform, and the mixture was centrifuged to give a supernatant. To the supernatant, an equal amount of isopropanol containing 0.3 M sodium acetate was added, and the mixture was allowed to stand at room temperature for 30 minutes, after which the mixture was centrifuged to give a sediment of the whole RNAs. Seventy % ethanol was added to the sediment, and the mixture was again centrifuged to give a sediment, which was then dried and dissolved in water. mRNA was isolated from the whole RNAs as followings. In view of the fact that a poly A chain is attached to the 3′ terminus of mRNA, a polynucleotide having a poly T structure which was immobilized on the surface of latex beads was used to trap the mRNA, and then the mRNA was washed and eluted with spine column (Oligotex-dT30<Super>mRNA Purification Kit, Takara). Reverse transcription of the mRNA was conducted with a reverse transcriptase (Super Script II Reverse Transcriptase; catalogue No. 18064-014, GibcoBRL) using fluorescence-labeled nucleotides to give cDNAs that were introduced with Cy3-dUTP or Cy5-dUTP during the reverse transcription.
# The labeled cDNAs were dissolved in TE buffer (10mM Tris-HCl/1 mM EDTA, pH8.0), and the solution was dropped on the DNA chip containing the whole genes of yeast (DNA Chip Research Inc. Japan) so that the cDNAs were hybridized on the DNA chip at 65° C. for over 12 hours. The fluoresces intensity of the DNA chip was read with a scanner, and the ratio relative to the fluorescence intensity resulting from the absence of chemical substance was estimated as the following, which is shown in Tables 1 to 9: […]
smiles,measurement,setting,value
"Oc1cc(Cl)c(Cl)cc1Cl [(6), 2,4,5-trichlorophenol]",The level of expressed mRNA in the presence of chemical substance/The level of expressed mRNA in the absence of chemical substance,yeast gene YJL210W,0.6
same,The level of expressed mRNA in the presence of chemical substance/The level of expressed mRNA in the absence of chemical substance,yeast gene YJR004C,1.2
same,The level of expressed mRNA in the presence of chemical substance/The level of expressed mRNA in the absence of chemical substance,yeast gene YJR050W,1.4
same,The level of expressed mRNA in the presence of chemical substance/The level of expressed mRNA in the absence of chemical substance,yeast gene YJR086W,1.9
same,The level of expressed mRNA in the presence of chemical substance/The level of expressed mRNA in the absence of chemical substance,yeast gene YJR091C,0.8
same,The level of expressed mRNA in the presence of chemical substance/The level of expressed mRNA in the absence of chemical substance,yeast gene YJR110W,0.9
same,The level of expressed mRNA in the presence of chemical substance/The level of expressed mRNA in the absence of chemical substance,yeast gene YJR117W,1.3
same,The level of expressed mRNA in the presence of chemical substance/The level of expressed mRNA in the absence of chemical substance,yeast gene YJR119C,1.4
same,The level of expressed mRNA in the presence of chemical substance/The level of expressed mRNA in the absence of chemical substance,yeast gene YJR145C,0.4
same,The level of expressed mRNA in the presence of chemical substance/The level of expressed mRNA in the absence of chemical substance,yeast gene YKL008C,3.8
same,The level of expressed mRNA in the presence of chemical substance/The level of expressed mRNA in the absence of chemical substance,yeast gene YKL013C,1.9
same,The level of expressed mRNA in the presence of chemical substance/The level of expressed mRNA in the absence of chemical substance,yeast gene YKL025C,0.9
same,The level of expressed mRNA in the presence of chemical substance/The level of expressed mRNA in the absence of chemical substance,yeast gene YKL039W,4.9
same,The level of expressed mRNA in the presence of chemical substance/The level of expressed mRNA in the absence of chemical substance,yeast gene YKL041W,2.2
same,The level of expressed mRNA in the presence of chemical substance/The level of expressed mRNA in the absence of chemical substance,yeast gene YKL079W,0.8
same,The level of expressed mRNA in the presence of chemical substance/The level of expressed mRNA in the absence of chemical substance,yeast gene YKL096W,0.6
same,The level of expressed mRNA in the presence of chemical substance/The level of expressed mRNA in the absence of chemical substance,yeast gene YKL139W,3.5
same,The level of expressed mRNA in the presence of chemical substance/The level of expressed mRNA in the absence of chemical substance,yeast gene YKL165C,0.6
same,The level of expressed mRNA in the presence of chemical substance/The level of expressed mRNA in the absence of chemical substance,yeast gene YKL193C,0.9
same,The level of expressed mRNA in the presence of chemical substance/The level of expressed mRNA in the absence of chemical substance,yeast gene YKL196C,0.9
same,The level of expressed mRNA in the presence of chemical substance/The level of expressed mRNA in the absence of chemical substance,yeast gene YKR014C,2.1
same,The level of expressed mRNA in the presence of chemical substance/The level of expressed mRNA in the absence of chemical substance,yeast gene YKR098C,1.8
same,The level of expressed mRNA in the presence of chemical substance/The level of expressed mRNA in the absence of chemical substance,yeast gene YLR120C,1.9
same,The level of expressed mRNA in the presence of chemical substance/The level of expressed mRNA in the absence of chemical substance,yeast gene YLR136C,1.7
same,The level of expressed mRNA in the presence of chemical substance/The level of expressed mRNA in the absence of chemical substance,yeast gene YLR144C,0.9
same,The level of expressed mRNA in the presence of chemical substance/The level of expressed mRNA in the absence of chemical substance,yeast gene YLR178C,4.2
same,The level of expressed mRNA in the presence of chemical substance/The level of expressed mRNA in the absence of chemical substance,yeast gene YLR206W,0.5
same,The level of expressed mRNA in the presence of chemical substance/The level of expressed mRNA in the absence of chemical substance,yeast gene YLR250W,1.1
same,The level of expressed mRNA in the presence of chemical substance/The level of expressed mRNA in the absence of chemical substance,yeast gene YLR266C,1.0
same,The level of expressed mRNA in the presence of chemical substance/The level of expressed mRNA in the absence of chemical substance,yeast gene YLR327C,5.1
same,The level of expressed mRNA in the presence of chemical substance/The level of expressed mRNA in the absence of chemical substance,yeast gene YLR356W,3.4
same,The level of expressed mRNA in the presence of chemical substance/The level of expressed mRNA in the absence of chemical substance,yeast gene YLR360W,1.4
same,The level of expressed mRNA in the presence of chemical substance/The level of expressed mRNA in the absence of chemical substance,yeast gene YLR362W,0.8
same,The level of expressed mRNA in the presence of chemical substance/The level of expressed mRNA in the absence of chemical substance,yeast gene YLR389C,0.2
same,The level of expressed mRNA in the presence of chemical substance/The level of expressed mRNA in the absence of chemical substance,yeast gene YLR391W,1.5
same,The level of expressed mRNA in the presence of chemical substance/The level of expressed mRNA in the absence of chemical substance,yeast gene YLR429W,0.8
same,The level of expressed mRNA in the presence of chemical substance/The level of expressed mRNA in the absence of chemical substance,yeast gene YMR004W,0.5
same,The level of expressed mRNA in the presence of chemical substance/The level of expressed mRNA in the absence of chemical substance,yeast gene YMR094W,0.5
same,The level of expressed mRNA in the presence of chemical substance/The level of expressed mRNA in the absence of chemical substance,yeast gene YMR101C,0.4
same,The level of expressed mRNA in the presence of chemical substance/The level of expressed mRNA in the absence of chemical substance,yeast gene YMR104C,1.9
same,The level of expressed mRNA in the presence of chemical substance/The level of expressed mRNA in the absence of chemical substance,yeast gene YMR219W,0.8
same,The level of expressed mRNA in the presence of chemical substance/The level of expressed mRNA in the absence of chemical substance,yeast gene YMR226C,2.6
